Assay results published in paper PMC7615677 (Science translational medicine, 2023).
Several values for one entry are separate records, joined by “and”; a condition that tells them apart may be missing. Identical values can stand only once.

Tests used:
Leishmania = assay: Activity of synthesized metabolites against Leishmania; type: cell-based
T. cruzi = system: T. cruzi; design: method as in PMID 25740547; conditions: cited from earlier work
[1] = system: L. donovani intracellular amastigote stage; design: method as in PMID 25740547; conditions: intracellular amastigote stage of L. donovani; cited from earlier work
L. infantum = assay: Promastigote back-transformation assay on organs of treated hamsters; type: in vivo, golden hamsters
Excerpt: Female golden hamsters (5 per treatment group) were infected through intracardiac administration of 2x10^7 L. infantum amastigotes obtained from the spleen of a heavily infected donor hamster. […] After 5-day treatment period, followed by a 10-day wash out period, animals were sacrificed, and parasites burden assessed in the three target organs (liver, spleen, and bone-marrow). For this assessment, organs of individual animals were weighed, except for bone-marrow thus only providing a semi-quantitative evaluation only. Impression smears were Giemsa-stained for microscopic evaluation of amastigote burden, expressed as LDU (= mean number of amastigotes/cell × organ weight in mg) and the results were expressed as a percentage reduction compared to the burdens in the control group (vehicle as placebo). For evaluating the presence of viable residual burden after treatment, a promastigote back-transformation assay was conducted. This consisted of the incubation at ambient temperature of aseptically collected pieces of spleen or liver tissue in 1 mL of promastigote back-transformation medium in 24-well plates. For the bone-marrow, resected femurs were flushed with 1 mL medium. The medium consists of HOMEM pH 6.0 prepared as described elsewhere ([5]) with 10% fetal bovine serum (Gibco), 2.5% penicillin/streptomycin and 1% gentamicin (Merck). A qualitative assessment of the presence of promastigotes was made after 3 and 5 days of incubation and a score was attributed (+, ++ or +++) based on parasite density in the positive wells.
Supplementary Materials and methods
Promastigote transformation assay
For evaluating the presence of viable residual burdens after treatment, a promastigote back-transformation assay is conducted. This test consists of the incubation at ambient temperature of aseptically collected pieces of spleen or liver tissue in 1 mL of promastigote back-transformation medium in 24-well plates. For the bone-marrow, resected femurs are flushed with 1 mL medium. The medium consists of HOMEM pH 6.0 prepared as described elsewhere (1) with 10% fetal bovine serum (Gibco) and 2.5% penicillin/streptomycin and 1% gentamicin (Merck). A qualitative assessment of the presence of promastigotes is made after 3 and 5 days of incubation and a score is attributed (+, ++ or +++) based on parasite density in the positive […]
Supplementary Information on Tables
L. infantum MHOM/FR/96/LEM3323 Cl4 was originally obtained from a French HIV-positive patient (Languedoc area in Southern France) and provided by Dr. Laurence Lachaud of the Centre National de Référence des Leishmanioses (CNRL), Montpellier, France. The miltefosine and paromomycin resistant lines (LEM3323 Cl4 MIL-R and PMM-R) were obtained by successive in vitro selection cycles on intracellular amastigotes (2, 3)

[2] = 40 mg/kg qd, 5 days, individual animals 1-10

Cc1nc(N)nc2[nH]c(CO)c(-c3ccc(C#N)c4c3OCO4)c12 [DNDI0003671146]
activity against Leishmania, in words (Leishmania): inactive

COc1ccccc1-c1c(C)[nH]c2nc(N)nc(C)c12 [TCMDC-143610]
EC50 (T. cruzi): 130 nM
EC50 [1]: 15.8 µM

CCCCCCCCCCCCCCCCOP(=O)([O-])OCC[N+](C)(C)C [miltefosine, reference compound]
emergence of viable promastigotes from recovered organs, in words (L. infantum; 40 mg/kg): more than half of those following miltefosine administration at 40 mg/kg were positive
parasite score, Bone-marrow (L. infantum; [2]): ++ (4×) and + (4×) and - (2×)
parasite score, Liver (L. infantum; [2]): + (3×) and - (7×)
parasite score, Spleen (L. infantum; [2]): + (5×) and ++ (4×) and -

Cc1[nH]c2nc(N)nc(C)c2c1-c1ccc(C#N)c(O)c1O [DNDI0003578765]
activity against Leishmania, in words (Leishmania): inactive
